Key:
CASOB (Sicklepod) = test: Postemergence herbicidal evaluation; assay type: in vivo, Cassia obtusifolia; conditions: for herbicidal rating CASOB: postemergence
Summary of the method: (§1)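 Two-week seedlings sprayed postemergence at 40 psi; formulation: 1:1 acetone/water, 0.5% TWEEN 20; application ≈0.0156–0.500 kg/ha. Greenhouse grow-out, then 0–9 visual scoring at 4–5 weeks.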

ORYSAT (Rice, Tebonnet) [1] = test: Rice tolerance to post-transplant applications, flooded paddy conditions (Table III); assay type: in vivo, Oryza sativa, (L.) Tebonnet; conditions: in vivo
Protocol: (§2) Results of herbicide evaluation are expressed on a rating scale (0-9). The scale is based upon a visual observation of plant stand, vigor, malformation, size, chlorosis and overall plant appearance as compared with a control.
The tolerance of transplanted rice to post-transplanted herbicide applications is determined as follows: two ten-day-old rice seedlings (cv. Tebonnet) are transplanted into silt loam soil in 32 oz. plastic containers with a diameter of 10.5 cm and no drainage holes. After transplanting, the containers are flooded and the water level is maintained at 1.5 to 3 cm above the soil surface. Three days after transplanting, the flooded soil surface of the containers is treated with the selected aqueous/acetone 50/50 v/v mixture containing the test compounds to provide the equivalent of about 0.0313 to 0.500 kg/ha of active ingredient. The treated containers are placed on greenhouse benches, watered such that the water level is maintained as stated above, and cared for in accordance with conventional greenhouse procedures. Three to four weeks after treatment, the test is terminated and each container is examined and herbicidal effect rated according to the rating system provided in Example 37. The compounds evaluated are reported by compound number given in Example 37.
Plant species employed in this example are reported by header abbreviation, common name and scientific name.

[2] = test system: CHEAL (Lambsquarters, Common); test: Postemergence herbicidal evaluation; assay type: in vivo, Chenopodium album; conditions: for herbicidal rating CHEAL: postemergence
Summary of the method: as §1

[3] = test system: CHEAL (Lambsquarters, Common); test: Preemergence herbicidal evaluation; assay type: in vivo, Chenopodium album; conditions: rated 4-5 weeks after treatment
Summary of the method: (§3)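 Test compound, dissolved in aqueous acetone, was sprayed over planted soil cups at an equivalent of about 0.0156 to 0.500 kg/ha; seeds had been mixed with potting soil. Greenhouse growth followed, with visual 0-9 scoring of injury at four to five weeks.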

ORYSAT (Rice, Tebonnet) [4] = test: Preemergence herbicidal evaluation; assay type: in vivo, Oryza sativa, (L.) Tebonnet; conditions: rated 4-5 weeks after treatment
Summary of the method: as §3

[5] = test system: TRZAWR (Wheat, Winter, cv Riband); test: Postemergence herbicidal evaluation; assay type: in vivo, Triticum aestivum; conditions: for herbicidal rating TRZAWR: postemergence
Summary of the method: as §1

ORYSAT (Rice, Tebonnet) [6] = test: Rice tolerance to post-transplant applications, flooded paddy conditions (Table IV); assay type: in vivo, Oryza sativa, (L.) Tebonnet; conditions: in vivo
Text: as §2
Plastic containers containing weeds which are 3 to 5 cm tall and rice seedlings at the 1.5 to 2.5 leaf stage are flooded with water. The water is maintained at 1.5 to 3 cm above the soil surface for the duration of the experiment. Test compounds are applied as aqueous/ acetone mixtures 50/50 v/v directly into the flood water to provide the equivalent of about 0.0313 to 0.500 kg/ha of active ingredient. The treated containers are placed on greenhouse benches and cared for in accordance with conventional greenhouse procedures. Three to four weeks after treatment, the test is terminated and each container is examined and herbicidal effect rated according to the rating system provided in Example 37. The compounds evaluated are reported by compound number given in Example 37.

[7] = rate 0.0156 kg/ha, rating scale 0-9
[8] = rate 0.0313 kg/ha, rating scale 0-9
[9] = rate 0.0625 kg/ha, rating scale 0-9
[10] = rate 0.1250 kg/ha, rating scale 0-9
[11] = rate 0.2500 kg/ha, rating scale 0-9

Cn1c(C(F)(F)F)cc(=O)n(-c2cc(N=C3SCC(=O)N3Cc3ccc(S(N)(=O)=O)cc3)c(Cl)cc2F)c1=O [Compound 135, Alpha-{2-{{2-chloro-5-[3,6-dihydro-3-methyl-2,6-dioxo-4-(trifluoromethyl)-1(2H)-pyrimidinyl]-4-fluorophenyl}imino}-4-oxo-3-thiazolidinyl}-p-toluenesulfonamide]
herbicidal rating CASOB (CASOB (Sicklepod); rate 0.0156 kg/ha): 2.0 | herbicidal rating CASOB (CASOB (Sicklepod); rate 0.0313 kg/ha): 4.0 | herbicidal rating CASOB (CASOB (Sicklepod); rate 0.0625 kg/ha): 4.0 | herbicidal effect rating, ORYSAT (rice tolerance) (ORYSAT (Rice, Tebonnet) [1]): 0.0 | herbicidal rating CHEAL ([2]; rate 0.0156 kg/ha): 4.0 | herbicidal rating CHEAL ([2]; rate 0.0313 kg/ha): 7.0 | herbicidal rating CHEAL ([2]; rate 0.0625 kg/ha): 9.0 | Preemergence herbicidal rating CHEAL [3, 7]: 7.0 | Preemergence herbicidal rating CHEAL [3, 8]: 7.0 | Preemergence herbicidal rating CHEAL [3, 9]: 9.0 | Preemergence herbicidal rating CHEAL [3, 10]: 9.0 | Preemergence herbicidal rating CHEAL [3, 11]: 9.0 | Preemergence herbicidal rating ORYSAT (ORYSAT (Rice, Tebonnet) [4]; [7]): 1.0 | Preemergence herbicidal rating ORYSAT (ORYSAT (Rice, Tebonnet) [4]; [8]): 1.0 | Preemergence herbicidal rating ORYSAT (ORYSAT (Rice, Tebonnet) [4]; [9]): 1.0 | Preemergence herbicidal rating ORYSAT (ORYSAT (Rice, Tebonnet) [4]; [10]): 1.0 | Preemergence herbicidal rating ORYSAT (ORYSAT (Rice, Tebonnet) [4]; [11]): 7.0 | herbicidal rating TRZAWR ([5]; rate 0.0156 kg/ha): 2.5 | herbicidal rating TRZAWR ([5]; rate 0.0313 kg/ha): 2.5 | herbicidal rating TRZAWR ([5]; rate 0.0625 kg/ha): 3.0

CCOC(=O)CCN1C(=O)CSC1=Nc1cc(-n2c(=O)cc(C(F)(F)F)n(C)c2=O)c(Cl)cc1Cl [Compound 32, Ethyl 2-{{2,4-dichloro-5-[3,6-dihydro-3-methyl-2,6-dioxo-4-(trifluoromethyl)-1(2H)-pyrimidinyl]-phenyl}imino}-4-oxo-3-thiazolidinepropionate]
Postemergence herbicidal rating CASOB (CASOB (Sicklepod); Rate 0.0158 kg/ha): 0.0 | Postemergence herbicidal rating CASOB (CASOB (Sicklepod); Rate 0.0313 kg/ha): 0.0 | Postemergence herbicidal rating CASOB (CASOB (Sicklepod); Rate 0.0625 kg/ha): 0.0 | Postemergence herbicidal rating CASOB (CASOB (Sicklepod); Rate 0.1250 kg/ha): 3.0 | Herbicidal rating ORYSAT (rice tolerance) (ORYSAT (Rice, Tebonnet) [1]): 0.0 | Postemergence herbicidal rating CHEAL ([2]; Rate 0.0158 kg/ha): 3.0 | Postemergence herbicidal rating CHEAL ([2]; Rate 0.0313 kg/ha): 0.0 | Postemergence herbicidal rating CHEAL ([2]; Rate 0.0625 kg/ha): 2.0 | Postemergence herbicidal rating CHEAL ([2]; Rate 0.1250 kg/ha): 6.0 | Preemergence herbicidal rating CHEAL ([3]; rate 0.0156 kg/ha): 4.5 | Preemergence herbicidal rating CHEAL ([3]; rate 0.0313 kg/ha): 4.5 | Preemergence herbicidal rating CHEAL ([3]; rate 0.0625 kg/ha): 9.0 | Preemergence herbicidal rating CHEAL ([3]; rate 0.1250 kg/ha): 9.0 | Preemergence herbicidal rating CHEAL ([3]; rate 0.2500 kg/ha): 9.0 | Preemergence herbicidal rating CHEAL ([3]; rate 0.5000 kg/ha): 9.0 | Herbicidal rating ORYSAT (rice tolerance) (ORYSAT (Rice, Tebonnet) [6]): 0.0 | Preemergence herbicidal rating ORYSAT (ORYSAT (Rice, Tebonnet) [4]; rate 0.0156 kg/ha): 0.0 | Preemergence herbicidal rating ORYSAT (ORYSAT (Rice, Tebonnet) [4]; rate 0.0313 kg/ha): 0.0 | Preemergence herbicidal rating ORYSAT (ORYSAT (Rice, Tebonnet) [4]; rate 0.0625 kg/ha): 0.0 | Preemergence herbicidal rating ORYSAT (ORYSAT (Rice, Tebonnet) [4]; rate 0.1250 kg/ha): 0.0 | Preemergence herbicidal rating ORYSAT (ORYSAT (Rice, Tebonnet) [4]; rate 0.2500 kg/ha): 1.5 | Preemergence herbicidal rating ORYSAT (ORYSAT (Rice, Tebonnet) [4]; rate 0.5000 kg/ha): 4.0 | Postemergence herbicidal rating TRZAWR ([5]; Rate 0.0158 kg/ha): 2.0 | Postemergence herbicidal rating TRZAWR ([5]; Rate 0.0313 kg/ha): 3.5 | Postemergence herbicidal rating TRZAWR ([5]; Rate 0.0625 kg/ha): 4.0 | Postemergence herbicidal rating TRZAWR ([5]; Rate 0.1250 kg/ha): 4.0

Cn1c(C(F)(F)F)cc(=O)n(-c2cc(N=C3SCC(=O)N3Cc3ccc(Br)cc3)c(Cl)cc2F)c1=O [Compound 148, 3-{5-{[3-(p-Bromobenzyl)-4-oxo-2-thiazolidinyl-idene]amino}-4-chloro-2-fluorophenyl}-1-methyl-6-(trifluoromethyl)-2,4(1H,3H)-pyrimidinedione]
herbicidal rating CASOB (CASOB (Sicklepod); rate 0.0156 kg/ha): 3.0 | herbicidal rating CASOB (CASOB (Sicklepod); rate 0.0313 kg/ha): 3.0 | herbicidal rating CASOB (CASOB (Sicklepod); rate 0.0625 kg/ha): 3.0 | herbicidal effect rating, ORYSAT (rice tolerance) (ORYSAT (Rice, Tebonnet) [1]): 0.0 | herbicidal rating CHEAL ([2]; rate 0.0156 kg/ha): 4.0 | herbicidal rating CHEAL ([2]; rate 0.0313 kg/ha): 7.0 | herbicidal rating CHEAL ([2]; rate 0.0625 kg/ha): 7.0 | Preemergence herbicidal rating CHEAL [3, 8]: 6.0 | Preemergence herbicidal rating CHEAL [3, 9]: 9.0 | Preemergence herbicidal rating CHEAL [3, 10]: 9.0 | Preemergence herbicidal rating CHEAL [3, 11]: 9.0 | Preemergence herbicidal rating ORYSAT (ORYSAT (Rice, Tebonnet) [4]; [8]): 0.0 | Preemergence herbicidal rating ORYSAT (ORYSAT (Rice, Tebonnet) [4]; [9]): 0.0 | Preemergence herbicidal rating ORYSAT (ORYSAT (Rice, Tebonnet) [4]; [10]): 0.0 | Preemergence herbicidal rating ORYSAT (ORYSAT (Rice, Tebonnet) [4]; [11]): 0.0 | herbicidal rating TRZAWR ([5]; rate 0.0156 kg/ha): 2.5 | herbicidal rating TRZAWR ([5]; rate 0.0313 kg/ha): 3.0 | herbicidal rating TRZAWR ([5]; rate 0.0625 kg/ha): 4.0

CSCCN1C(=O)CSC1=Nc1cc(-n2c(=O)cc(C(F)(F)F)n(C)c2=O)c(F)cc1Cl [Compound 157]
herbicidal rating CASOB (CASOB (Sicklepod); rate 0.0156 kg/ha): 0.0 | herbicidal rating CASOB (CASOB (Sicklepod); rate 0.0313 kg/ha): 0.0 | herbicidal rating CASOB (CASOB (Sicklepod); rate 0.0625 kg/ha): 3.0 | herbicidal effect rating, ORYSAT (rice tolerance) (ORYSAT (Rice, Tebonnet) [1]): 0.0 | herbicidal rating CHEAL ([2]; rate 0.0156 kg/ha): 2.0 | herbicidal rating CHEAL ([2]; rate 0.0313 kg/ha): 4.0 | herbicidal rating CHEAL ([2]; rate 0.0625 kg/ha): 9.0 | Preemergence herbicidal rating CHEAL [3, 8]: 1.0 | Preemergence herbicidal rating CHEAL [3, 9]: 0.0 | Preemergence herbicidal rating CHEAL [3, 10]: 9.0 | Preemergence herbicidal rating CHEAL [3, 11]: 9.0 | Preemergence herbicidal rating ORYSAT (ORYSAT (Rice, Tebonnet) [4]; [8]): 0.0 | Preemergence herbicidal rating ORYSAT (ORYSAT (Rice, Tebonnet) [4]; [9]): 0.0 | Preemergence herbicidal rating ORYSAT (ORYSAT (Rice, Tebonnet) [4]; [10]): 0.0 | Preemergence herbicidal rating ORYSAT (ORYSAT (Rice, Tebonnet) [4]; [11]): 0.0 | herbicidal rating TRZAWR ([5]; rate 0.0156 kg/ha): 2.5 | herbicidal rating TRZAWR ([5]; rate 0.0313 kg/ha): 3.5 | herbicidal rating TRZAWR ([5]; rate 0.0625 kg/ha): 4.0

COc1ccc(CN2C(=O)CSC2=Nc2cc(-n3c(=O)cc(C(F)(F)F)n(C)c3=O)c(F)cc2Cl)cc1OC [Compound 134, 3-{4-Chloro-5-{[3-(3,4-dimethoxybenzyl)-4-oxo-2-thiazolidinylidene]amino}-2-fluorophenyl}-1-methyl-6-(trifluoromethyl)-2,4(1H,3H)-pyrimidinedione]
herbicidal rating CASOB (CASOB (Sicklepod); rate 0.0156 kg/ha): 0.0 | herbicidal rating CASOB (CASOB (Sicklepod); rate 0.0313 kg/ha): 0.0 | herbicidal rating CASOB (CASOB (Sicklepod); rate 0.0625 kg/ha): 0.0 | herbicidal effect rating, ORYSAT (rice tolerance) (ORYSAT (Rice, Tebonnet) [1]): 2.0 | herbicidal rating CHEAL ([2]; rate 0.0156 kg/ha): 1.0 | herbicidal rating CHEAL ([2]; rate 0.0313 kg/ha): 3.0 | herbicidal rating CHEAL ([2]; rate 0.0625 kg/ha): 4.0 | Preemergence herbicidal rating CHEAL [3, 10]: 9.0 | Preemergence herbicidal rating CHEAL [3, 11]: 9.0 | Preemergence herbicidal rating ORYSAT (ORYSAT (Rice, Tebonnet) [4]; [10]): 0.0 | Preemergence herbicidal rating ORYSAT (ORYSAT (Rice, Tebonnet) [4]; [11]): 0.0 | herbicidal rating TRZAWR ([5]; rate 0.0156 kg/ha): 2.5 | herbicidal rating TRZAWR ([5]; rate 0.0313 kg/ha): 3.5 | herbicidal rating TRZAWR ([5]; rate 0.0625 kg/ha): 4.0
